Data as given in patent US6906086B2, “Methods for inhibiting bone loss” (Eli Lilly and Company, priority 1992, dated 2005).
Entries after “also recorded” stand apart in the source; their conditions may differ. Where a name gives a salt, the structure may show the parent alone. Read-outs that look alike come from different tables or passages of the source. Values belong to the compound of their own block, whether it stands above or below them.

How the values were obtained:
[1] = test system: ovariectomized (ovex) rats; assay: Ovariectomized rat model of post-menopausal osteoporosis: femur density by single photon absorptiometry; format: in vivo, Sprague Dawley rats; conditions: for inhibition in vivo at 1 mg/kg: Rattus norvegicus, read-out: % Inhibition of Bone Loss; for prevention of bone loss (femur density), in words: oral
Procedure: In the examples illustrating the methods, a model of post-menopausal osteoporosis was used in which effects of different treatments upon femur density were determined.
Seventy-five day old female Sprague Dawley rats (weight range of 225 to 275 g) were obtained from Charles River Laboratories (Portage, Mich.). They were housed in groups of 3 and had ad libitum access to food (calcium content approximately 1%) and water. Room temperature was maintained at 22.2°±1.7° C. with a minimum relative humidity of 40%. The photoperiod in the room was 12 hours light and 12 hours dark.
The right femurs were excised and scanned at the distal metaphysis 1 mm from the patellar groove with single photon absorptiometry. Results of the densitometer measurements represent a calculation of bone density as a function of the bone mineral content and bone width.

[2] = test system: ovariectomized (ovex) rats; assay: Uterine wet weight in ovariectomized rats; conditions: for % Uterine Weight Gain: relative to estrogen treated ovex animals
Procedure: (§1) One week after arrival, the rats underwent bilateral ovariectomy under anesthesia (44 mg/kg Ketamine and 5 mg/kg Xylazine (Butler, Indianapolis, Ind.) administered intramuscularly). Treatment with vehicle, estrogen, or a compound of formula I was initiated on the day of surgery following recovery from anesthesia. Oral dosage was by gavage in 0.5 mL of 1% carboxymethylcellulose (CMC). Body weight was determined at the time of surgery and weekly thereafter and the dosage was adjusted with changes in body weight. Vehicle or estrogen treated ovariectomized (ovex) rats and non-ovariectomized (intact) rats were evaluated in parallel with each experimental group to serve as negative and positive controls.
(§2) The rats were treated daily for 35 days (6 rats per treatment group) and sacrificed by decapitation on the 36th day. […] At the time of sacrifice, the uteri were removed, dissected free of extraneous tissue, and the fluid contents were expelled before determination of wet weight in order to confirm estrogen deficiency associated with complete ovariectomy. […] The uteri were then placed in 10% neutral buffered formalin to allow for subsequent histological analysis.

[3] = test system: ovariectomized (ovex) rats; conditions: rat, in vivo, po
Procedure: as §1, §2

ovariectomized rats = assay: Uterine histological parameters of estrogenicity in ovariectomized rats; conditions: for Epithelial Height / Myometrial Thickness / Stromal Eosinophils / Stromal Expansion: Table 6, ovex rats, 1 mg/kg
Procedure: A relatively narrow range of doses of raloxifene and tamoxifen was administered orally to ovariectomized rats as in the previous example.
Increases in epithelial height are a sign of estrogenicity of therapeutic agents and may be associated with increased incidence of uterine cancer.
Estrogenicity was also assessed by evaluating the adverse response of eosinophil infiltration into the stromal layer of the uterus (Table 6).

[4] = Oral administration to human subjects in the clinic: parent compound in serum
[5] = test system: uterine uptake of tritiated-estradiol; assay: Laboratory animal studies: uterine uptake of tritiated-estradiol and uterotrophic response to estradiol; conditions: laboratory animals; conditions where raloxifene was extensively conjugated in plasma
Source text: Experiments were undertaken to address the bioavailability issue in laboratory animals where biological activity could be assessed.

[6] = Love et al. 1992; Turner et al. 1988; cited from earlier work
[7] = ovex rats, 1 mg/kg oral, relative to estrogen treated ovex animals
[8] = Table 5, ovex rats, 1 mg/kg oral

SMILES: O=C(Oc1ccc(-c2sc3cc(OC(=O)c4ccccc4)ccc3c2C(=O)c2ccc(OCCN3CCCCC3)cc2)cc1)c1ccccc1 [Compound 12]
% Inhibition of Bone Loss [1, 7]: 60% | % Uterine Weight Gain ([3]; 1 mg/kg): 15%

SMILES: CCCCOC(=O)Oc1ccc(-c2sc3cc(OC(=O)OCCCC)ccc3c2C(=O)c2ccc(OCCN3CCCCC3)cc2)cc1.Cl [Compound 14, 6-(n-Butoxycarbonyloxy)-2-[4(n-butoxycarbonyloxy)phenyl]-benzo[b]thien-3-yl[4-[2-(piperidin-1-yl)ethoxy]phenyl]-methanone Hydrochloride]
inhibition in vivo at 1 mg/kg [1, 7]: 121% | % Uterine Weight Gain ([2]; ovex rats, 1 mg/kg oral): 32%

SMILES: C#C[C@]1(O)CC[C@H]2[C@@H]3CCc4cc(O)ccc4[C@H]3CC[C@@]21C [EE2, ethynyl estradiol, reference compound]
Bone Density ([1]; Table 4 Experiment A, ovex rats, EE2 100 μg/kg oral): 202 ± 6 mg/cm/cm | Bone Density ([1]; Table 4 Experiment B, ovex rats, EE2 100 μg/kg oral): 215 ± 11 mg/cm/cm | Bone Density ([1]; Table 5, ovex rats, 100 μg/kg oral): 212 ± 10 mg/cm/cm | prevention of bone loss (femur density), in words ([1]; ovariectomized rats): prevented this loss of bone in a dose dependent manner | Bone Density ([1]; ovex rats, 100 μg/kg oral daily 35 days, five experiments accumulated, mean of thirty rats ± SEM (Table 2)): 210 ± 4 mg/cm/cm | eosinophil infiltration into the stromal layer of the uterus, in words (ovariectomized rats; rat, in vivo): caused a large increase in eosinophil infiltration | epithelial height, in words (ovariectomized rats; rat, in vivo, po): increased epithelial height to a thickness greater than intact rats | uterine weight, in words [3]: approached those of the intact controls

SMILES: Cl.O=C(c1ccc(OCCN2CCCCC2)cc1)c1c(-c2ccc(O)cc2)sc2cc(O)ccc12 [raloxifene, 6-hydroxy-2-(4-hydroxyphenyl)-benzo[b]thien-3-yl-4-[2-(piperidin-1-yl)ethoxyphenyl]-methanone hydrochloride]
Bone Density ([1]; Table 4 Experiment B, ovex rats, raloxifene 1 mg/kg alone): 198 ± 11 mg/cm/cm | Bone Density [1, 8]: 207 ± 13 mg/cm/cm | prevention of bone loss (femur density), in words ([1]; ovariectomized rats, hydrochloride): prevented bone loss in a dose dependent manner; also recorded: significantly reduced bone loss; also recorded: displayed the ability to prevent reduction of femur density | effect on the protective effect of estrogen on bone density ([1]; ovariectomized rats, given in combination with ethynyl estradiol): did not appreciably reduce the protective effect of the estrogen on bone density | Bone Density ([1]; ovex rats, 0.01 mg/kg oral, 35 days, five assays combined, thirty rats, mean ± SEM (Table 3)): 176 ± 3 mg/cm/cm | Bone Density ([1]; ovex rats, 0.10 mg/kg oral, 35 days, five assays combined, thirty rats, mean ± SEM (Table 3)): 197 ± 3 mg/cm/cm | Bone Density ([1]; ovex rats, 1.00 mg/kg oral, 35 days, five assays combined, thirty rats, mean ± SEM (Table 3)): 201 ± 3 mg/cm/cm | Bone Density ([1]; ovex rats, 10.00 mg/kg oral, 35 days, five assays combined, thirty rats, mean ± SEM (Table 3)): 199 ± 3 mg/cm/cm | Epithelial Height (ovariectomized rats): 1.67 | Myometrial Thickness (ovariectomized rats): 5.42 | Stromal Eosinophils (ovariectomized rats): 1.17 | Stromal Expansion (ovariectomized rats): 14.00 | eosinophil infiltration into the stromal layer of the uterus, in words (ovariectomized rats; ovariectomized rats): did not cause any increase | thickness of the stroma and myometrium, in words (ovariectomized rats; ovariectomized rats): an increase in these measurements that was much less than the effect of estrogen | total score of estrogenicity (compilation of all four parameters) (ovariectomized rats; ovariectomized rats): significantly less estrogenic than tamoxifen | epithelial height, in words (ovariectomized rats; ovariectomized rats, oral): only at one dose was there any statistically measurable increase in epithelial height over the ovariectomized controls | clearance from the bloodstream [4]: cleared quickly from the bloodstream | conjugation following oral administration [4]: extensively conjugated to the glucuronidated form | parent compound in the serum [4]: not detected | Uterine Weight ([3]; 1 mg/kg): 198 ± 9 mg | inhibition of the normal uterotrophic response to estradiol [5]: maximally active | inhibition of uterine uptake of tritiated-estradiol [5]: maximally active

SMILES: CC/C(=C(\c1ccccc1)c1ccc(OCCN(C)C)cc1)c1ccccc1 [tamoxifen]
Bone Density [1, 8]: 204 ± 7 mg/cm/cm | prevention of bone loss (femur density), in words ([1]; ovariectomized rats): displayed the ability to prevent reduction of femur density | Epithelial Height (ovariectomized rats): 2.58 | Myometrial Thickness (ovariectomized rats): 5.50 | Stromal Eosinophils (ovariectomized rats): 2.83 | Stromal Expansion (ovariectomized rats): 14.17 | eosinophil infiltration into the stromal layer of the uterus, in words (ovariectomized rats; ovariectomized rats): caused a significant increase | thickness of the stroma and myometrium, in words (ovariectomized rats; ovariectomized rats): an increase in these measurements that was much less than the effect of estrogen | epithelial height, in words (ovariectomized rats; ovariectomized rats, oral): increased epithelial height equal to that of an intact rat | increase in epithelial height over the response seen with raloxifene (ovariectomized rats; ovariectomized rats, all doses given): six-fold | inhibition of bone loss [6]: has been shown to inhibit bone loss | Uterine Weight [2, 8]: 216 ± 18 mg | uterine weight, in words ([2]; ovariectomized rats, oral): only modest uterotrophic activity

Now from value to compound, other results behind:

% Uterine Weight Gain ([2]; ovex rats, 1 mg/kg oral): 26%
SMILES: O=C(Oc1ccc(-c2sc3cc(OC(=O)c4ccc(F)cc4)ccc3c2C(=O)c2ccc(OCCN3CCCCC3)cc2)cc1)c1ccc(F)cc1 [Compound 2, 6-(4-Fluorobenzoyloxy)-2-[4-(4-fluorobenzoyloxy)-phenyl]-benzo[b]thien-3-yl-[4-[2-(piperidin-1-yl)ethoxy)-phenyl]-methanone Hydrochloride]
inhibition in vivo at 1 mg/kg [1, 7]: 86%

% Uterine Weight Gain ([2]; ovex rats, 1 mg/kg oral): 19%
SMILES: CCCC(=O)Oc1ccc(-c2sc3cc(OC(=O)CCC)ccc3c2C(=O)c2ccc(OCCN3CCCCC3)cc2)cc1 [Compound 6, 6-(n-Butanoyloxy)-2-[4-(n-butanoyloxy)phenyl]benzo[b]thien-3-yl-[4-[2-(piperidin-1-yl)ethoxy]phenyl]methanone Hydrochloride]
inhibition in vivo at 1 mg/kg [1, 7]: 24%

% Uterine Weight Gain ([2]; ovex rats, 1 mg/kg oral): 24%
SMILES: CC(C)(C)C(=O)Oc1ccc(-c2sc3cc(OC(=O)C(C)(C)C)ccc3c2C(=O)c2ccc(OCCN3CCCCC3)cc2)cc1.Cl [Compound 8, 6-(2,2-Dimethylpropanoyloxy)-2-[4-(2,2-dimethyl-propanoyloxy)phenyl]benzo[b]thien-3-yl-[4-[2-(piperidin-1-yl)ethoxy]phenyl]methanone Hydrochloride]
inhibition in vivo at 1 mg/kg [1, 7]: 66%

% Uterine Weight Gain ([2]; ovex rats, 1 mg/kg oral): 24%
SMILES: CC(C)(C)CC(=O)Oc1ccc(-c2sc3cc(OC(=O)CC(C)(C)C)ccc3c2C(=O)c2ccc(OCCN3CCCCC3)cc2)cc1 [Compound 10, 6-(3,3-Dimethylbutanoyloxy)-2-[4-(3,3-dimethylbutanoyloxy)-phenyl]benzo[b]thien-3-yl-[4-[2-(piperidin-1-yl)ethoxy]-phenyl]methanone Hydrochloride]
inhibition in vivo at 1 mg/kg [1, 7]: 52%

% Uterine Weight Gain ([2]; ovex rats, 1 mg/kg oral): 28%
SMILES: Cc1ccc(C(=O)Oc2ccc(-c3sc4cc(OC(=O)c5ccc(C)cc5)ccc4c3C(=O)c3ccc(OCCN4CCCCC4)cc3)cc2)cc1 [Compound 11, 6-(4-Methylbenzoyloxy)-2-[4-(4-methylbenzoyloxy)-phenyl]benzo[b]thien-3-yl[4-[2-(piperidin-1-yl)ethoxy]-phenyl]methanone Hydrochloride]
inhibition in vivo at 1 mg/kg [1, 7]: 26%

% Uterine Weight Gain ([2]; ovex rats, 1 mg/kg oral): 25%
SMILES: O=C(Oc1ccccc1)Oc1ccc(-c2sc3cc(OC(=O)Oc4ccccc4)ccc3c2C(=O)c2ccc(OCCN3CCCCC3)cc2)cc1 [Compound 16, 6-(Phenyloxycarbonyloxy)-2-[4(phenyloxycarbonyloxy)phenyl]-benzo[b]thien-3-yl[4-[2-(piperidin-1-yl)ethoxy]phenyl]-methanone hydrochloride]
inhibition in vivo at 1 mg/kg [1, 7]: 108%

% Uterine Weight Gain ([2]; ovex rats, 1 mg/kg oral): 17%
SMILES: COCC(=O)Oc1ccc(-c2sc3cc(OC(=O)COC)ccc3c2C(=O)c2ccc(OCCN3CCCCC3)cc2)cc1 [Compound 18, 6-(Methoxyethanoyloxy)-2-[4(methoxyethanoyloxy)phenyl]-benzo[b]thien-3-yl [4-[2-(piperidin-1-yl)ethoxy]phenyl]-methanone]
inhibition in vivo at 1 mg/kg [1, 7]: 21%
